PubChem BioAssay AID248 (DTP/NCI, 2004)
“And” between values parts separate entries of the source, which are not always exact repeats. Identical values can stand only once. Inconclusive results and toxic doses are left out. Cut-off read from the data, not from the text of the source: active = T/C of 150% or more; inactive = T/C below 125%. Peptide text beside a SMILES is read from it. * marks the point of attachment. Cbz = O=C(OCc1ccccc1)*; CH2Cl = ClC*

System: L1210 leukemia ip in BDF1 mice, survival T/C
Experiment: NCI In Vivo Anticancer Drug Screen. Data for tumor model L1210 Leukemia (intraperitoneal) in B6D2F1 (BDF1) mice
Details: endpoint: mean survival time, higher = longer survival
Outline: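 Mice bearing the transplanted tumor received compound or vehicle. Survival of the treated group was divided by that of the vehicle-treated control group to give the ratio.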

[1] = dose: 200.0 mg/kg/injection, schedule: Q01DX009 (ip), vehicle: Klucel (hydroxypropylcellulose) (HPC)
[2] = dose: 400.0 mg/kg/injection, schedule: Q01DX009 (ip), vehicle: Klucel (hydroxypropylcellulose) (HPC)
[3] = dose: 100.0 mg/kg/injection, schedule: Q04DX003 (ip), vehicle: Klucel (hydroxypropylcellulose) (HPC)
[4] = dose: 50.0 mg/kg/injection, schedule: Q01DX Z (ip), vehicle: carboxymethylcellulose (CMC)
[5] = dose: 100.0 mg/kg/injection, schedule: Q01DX Z (ip), vehicle: carboxymethylcellulose (CMC)
[6] = dose: 100.0 mg/kg/injection, schedule: Q04DX003 (ip), vehicle: saline with Tween-80
[7] = dose: 100.0 mg/kg/injection, schedule: Q04DX002 (ip), vehicle: Klucel (hydroxypropylcellulose) (HPC)
[8] = dose: 200.0 mg/kg/injection, schedule: Q04DX002 (ip), vehicle: Klucel (hydroxypropylcellulose) (HPC)
[9] = dose: 400.0 mg/kg/injection, schedule: Q04DX002 (ip), vehicle: Klucel (hydroxypropylcellulose) (HPC)
[10] = dose: 200.0 mg/kg/injection, schedule: Q04DX003 (ip), vehicle: saline with Tween-80
[11] = dose: 400.0 mg/kg/injection, schedule: Q04DX003 (ip), vehicle: saline with Tween-80
[12] = dose: 200.0 mg/kg/injection, schedule: Q04DX003 (ip), vehicle: Klucel (hydroxypropylcellulose) (HPC)
[13] = dose: 400.0 mg/kg/injection, schedule: Q04DX003 (ip), vehicle: Klucel (hydroxypropylcellulose) (HPC)

Measured: T/C

O=S(=O)(/C=C/c1ccc(-c2ccccc2)cc1)c1ccccc1
inactive: dose: 100.0 mg/kg/injection, schedule: Q01DX001 (ip), vehicle: acetone 101 % of control | dose: 100.0 mg/kg/injection, schedule: Q01DX009 (ip), vehicle: saline 94 % of control | dose: 100.0 mg/kg/injection, schedule: Q04DX003 (ip), vehicle: acetone 108 % of control | dose: 200.0 mg/kg/injection, schedule: Q01DX001 (ip), vehicle: acetone 89 % of control | dose: 200.0 mg/kg/injection, schedule: Q01DX009 (ip), vehicle: saline 96 % of control | dose: 200.0 mg/kg/injection, schedule: Q04DX003 (ip), vehicle: acetone 96 % of control | dose: 400.0 mg/kg/injection, schedule: Q01DX001 (ip), vehicle: acetone 98 % of control | dose: 400.0 mg/kg/injection, schedule: Q01DX009 (ip), vehicle: saline 96 % of control | dose: 400.0 mg/kg/injection, schedule: Q04DX003 (ip), vehicle: acetone 96 % of control

COc1cc(C(=O)Nc2ccc(F)cc2)cc(OC)c1OC
inactive: dose: 100.0 mg/kg/injection, schedule: Q01DX009 (ip), vehicle: Klucel (hydroxypropylcellulose) (HPC) 92 % of control | [1] 97 % of control | [2] 94 % of control

CC(C)CC(NC(=O)OCc1ccccc1)C(=O)NC(Cc1ccccc1)C(=O)CCl (stereo not drawn) (Cbz-Leu-Phe-CH2Cl; configuration not given here)
inactive: dose: 25.0 mg/kg/injection, schedule: Q04DX003 (ip), vehicle: Klucel (hydroxypropylcellulose) (HPC) 104 % of control | dose: 50.0 mg/kg/injection, schedule: Q04DX003 (ip), vehicle: Klucel (hydroxypropylcellulose) (HPC) 102 % of control | dose: 100.0 mg/kg/injection, schedule: Q01DX001 (ip), vehicle: Klucel (hydroxypropylcellulose) (HPC) 90 % of control | [3] 96 % of control and 89 % of control | dose: 200.0 mg/kg/injection, schedule: Q01DX001 (ip), vehicle: Klucel (hydroxypropylcellulose) (HPC) 88 % of control | dose: 400.0 mg/kg/injection, schedule: Q01DX001 (ip), vehicle: Klucel (hydroxypropylcellulose) (HPC) 103 % of control

O=NN(CC(Cl)CN(N=O)C(=O)NC1CCCCC1)C(=O)NC1CCCCC1
inactive: dose: 8.0 mg/kg/injection, schedule: Q01DX001 (ip), vehicle: other 97 % of control | dose: 16.0 mg/kg/injection, schedule: Q01DX001 (ip), vehicle: other 108 % of control | dose: 31.0 mg/kg/injection, schedule: Q01DX001 (ip), vehicle: other 90 % of control | dose: 62.0 mg/kg/injection, schedule: Q01DX001 (ip), vehicle: other 100 % of control | dose: 125.0 mg/kg/injection, schedule: Q01DX001 (ip), vehicle: other 95 % of control | dose: 250.0 mg/kg/injection, schedule: Q01DX001 (ip), vehicle: other 92 % of control | dose: 500.0 mg/kg/injection, schedule: Q01DX001 (ip), vehicle: other 97 % of control | dose: 750.0 mg/kg/injection, schedule: Q01DX001 (ip), vehicle: other 102 % of control | dose: 1000.0 mg/kg/injection, schedule: Q01DX001 (ip), vehicle: other 102 % of control

O=C(Nc1nc2ccccc2s1)c1ccc(C(=O)Nc2nc3ccccc3s2)cc1
inactive: dose: 100.0 mg/kg/injection, schedule: Q01DX001 (ip), vehicle: other 93 % of control | dose: 200.0 mg/kg/injection, schedule: Q01DX001 (ip), vehicle: other 90 % of control | dose: 400.0 mg/kg/injection, schedule: Q01DX001 (ip), vehicle: other 91 % of control

Cc1nc(N)[nH]c(=O)c1CCCNc1ccc(/C=C/C(=O)CCl)cc1
inactive: [4] 90 % of control | [5] 86 % of control | dose: 200.0 mg/kg/injection, schedule: Q01DX Z (ip), vehicle: carboxymethylcellulose (CMC) 90 % of control | dose: 400.0 mg/kg/injection, schedule: Q01DX Z (ip), vehicle: carboxymethylcellulose (CMC) 90 % of control

CC1CCCC(C)N1NC1=NCCO1 (stereo not given)
inactive: dose: 25.0 mg/kg/injection, schedule: Q01DX009 (ip), vehicle: saline with Tween-80 96 % of control | dose: 50.0 mg/kg/injection, schedule: Q01DX009 (ip), vehicle: saline with Tween-80 98 % of control | dose: 100.0 mg/kg/injection, schedule: Q01DX009 (ip), vehicle: saline with Tween-80 97 % of control | [6] 100 % of control

COc1c2ccoc2nc2c(OC)c(OCC(O)C(C)(C)O)ccc12 (stereo not given)
inactive: [4] 97 % of control | [5] 100 % of control

O=C1OC(c2cccc(Cl)c2)=N/C1=C\c1cc(Br)cc(Br)c1O
inactive: [7] 92 % of control | [8] 100 % of control | [9] 89 % of control

N#C/C(=C\c1c(Cl)cccc1Cl)c1ccc([N+](=O)[O-])cc1
inactive: [6] 106 % of control | [10] 95 % of control | [11] 92 % of control

NS(=O)(=O)c1ccc(NC(=O)Nc2ccc(F)cc2)cc1
inactive: dose: 100.0 mg/kg/injection, schedule: Q01DX001 (ip), vehicle: carboxymethylcellulose (CMC) 99 % of control | dose: 100.0 mg/kg/injection, schedule: Q01DX009 (ip), vehicle: carboxymethylcellulose (CMC) 94 % of control and 101 % of control | dose: 100.0 mg/kg/injection, schedule: Q04DX002 (ip), vehicle: carboxymethylcellulose (CMC) 92 % of control and 100 % of control | dose: 100.0 mg/kg/injection, schedule: Q04DX003 (ip), vehicle: carboxymethylcellulose (CMC) 93 % of control | dose: 200.0 mg/kg/injection, schedule: Q01DX001 (ip), vehicle: carboxymethylcellulose (CMC) 96 % of control | dose: 200.0 mg/kg/injection, schedule: Q01DX009 (ip), vehicle: carboxymethylcellulose (CMC) 94 % of control and 100 % of control | dose: 200.0 mg/kg/injection, schedule: Q04DX002 (ip), vehicle: carboxymethylcellulose (CMC) 100 % of control and 89 % of control | dose: 200.0 mg/kg/injection, schedule: Q04DX003 (ip), vehicle: carboxymethylcellulose (CMC) 104 % of control | dose: 400.0 mg/kg/injection, schedule: Q01DX001 (ip), vehicle: carboxymethylcellulose (CMC) 99 % of control | dose: 400.0 mg/kg/injection, schedule: Q01DX009 (ip), vehicle: carboxymethylcellulose (CMC) 94 % of control and 101 % of control | dose: 400.0 mg/kg/injection, schedule: Q04DX002 (ip), vehicle: carboxymethylcellulose (CMC) 100 % of control and 102 % of control | dose: 400.0 mg/kg/injection, schedule: Q04DX003 (ip), vehicle: carboxymethylcellulose (CMC) 104 % of control

CC(C)(C)c1ccc(-c2nnc(-c3ccc(-c4ccccc4)cc3)o2)cc1
inactive: [3] 95 % of control | [12] 92 % of control | [13] 90 % of control

CCOC(=O)[CH2][Sn]([Br])([Br])[CH2]C(=O)OCC
inactive: dose: 100.0 mg/kg/injection, schedule: Q04DX002 (ip), vehicle: saline with Tween-80 94 % of control | dose: 200.0 mg/kg/injection, schedule: Q04DX002 (ip), vehicle: saline with Tween-80 89 % of control

CN(CCOc1ccccc1O)CCOc1ccccc1O
inactive: [3] 105 % of control | [1] 101 % of control | [12] 106 % of control | [2] 86 % of control | [13] 101 % of control

CC1CCC2N(C1)CC1C3(O)CC4(O)C(CCC5C(=O)C(O)CCC54C)C3(O)CC(O)C1(O)C2(C)O (stereo not given)
inactive: dose: 5.0 mg/kg/injection, schedule: Q01DX001 (ip), vehicle: saline 98 % of control | dose: 10.0 mg/kg/injection, schedule: Q01DX001 (ip), vehicle: saline 98 % of control | dose: 20.0 mg/kg/injection, schedule: Q01DX001 (ip), vehicle: saline 98 % of control

COc1cc2c(c3ccccc13)CCCC2=O
inactive: [6] 103 % of control | [10] 93 % of control | [11] 92 % of control

O=Nc1ccc(C=C2C(=O)C=CC2=O)cc1
inactive: dose: 75.0 mg/kg/injection, schedule: Q01DX001 (ip), vehicle: saline 100 % of control | dose: 150.0 mg/kg/injection, schedule: Q01DX001 (ip), vehicle: saline 94 % of control | dose: 300.0 mg/kg/injection, schedule: Q01DX001 (ip), vehicle: saline 101 % of control

Cc1cccnc1NC(=S)Nc1cccc(C(F)(F)F)c1
inactive: [7] 95 % of control | [8] 95 % of control | [9] 92 % of control
